#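 Protocol summary: plate cells (96-well), add compound at 5 concentrations, incubate 48 h, interpolate endpoints linearly. Here, GI50 denotes the concentration required for 50% inhibition of growth.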 Active and inactive are the calls of the source. No stated cut-off is given here; in the data, active = GI50 up to about 1.1 µM and inactive = higher.
# Key:
# Test in all cases: NCI anticancer screen, dose series, 48 h
# HCT-15 = test system: HCT-15
# T47D = test system: T47D
# MDA-MB-435 = test system: MDA-MB-435
# Malme-3M = test system: Malme-3M
# UO-31 = test system: UO-31
# HCT-116 = test system: HCT-116
# SNB-19 = test system: SNB-19
# Hs-578T = test system: Hs-578T
# SF-539 = test system: SF-539
# IGROV-1 = test system: IGROV-1
# NCI/ADR-RES = test system: NCI/ADR-RES
# A498 = test system: A498
# SR = test system: SR
# MDA-N = test system: MDA-N
# SK-MEL-28 = test system: SK-MEL-28
# CAKI-1 = test system: CAKI-1
# KM12 = test system: KM12
# SK-OV-3 = test system: SK-OV-3
# SNB-75 = test system: SNB-75
# SW-620 = test system: SW-620
Structure (SMILES),GI50 (HCT-15),GI50 (T47D),GI50 (MDA-MB-435),GI50 (Malme-3M),GI50 (UO-31),GI50 (HCT-116),GI50 (SNB-19),GI50 (Hs-578T),GI50 (SF-539),GI50 (IGROV-1),GI50 (NCI/ADR-RES),GI50 (A498),GI50 (SR),GI50 (MDA-N),GI50 (SK-MEL-28),GI50 (CAKI-1),GI50 (KM12),GI50 (SK-OV-3),GI50 (SNB-75),GI50 (SW-620)
CO/C=C(/C(=O)OC)c1ccccc1COc1cccc(C(F)(F)F)c1,4.19 µM,15 µM (inactive),1.01 µM (active),1.41 µM (inactive),4.17 µM (inactive),2.4 µM (inactive),22.1 µM (inactive),10.3 µM (inactive),4.97 µM (inactive),4.57 µM (inactive),5.31 µM (inactive),4.85 µM (inactive),0.646 µM (active),2.54 µM (inactive),22.6 µM (inactive),4.84 µM (inactive),11.3 µM (inactive),27.9 µM (inactive),7.01 µM (inactive),
CN(C)c1ccc(C(=NNC(=O)c2cc3ccccc3[nH]2)c2ccc(N(C)C)cc2)cc1,0.156 µM,> 23.8 µM (inactive),0.024 µM (active),,0.942 µM (active),0.422 µM (active),0.625 µM (active),0.359 µM (active),0.573 µM (active),0.395 µM (active),0.177 µM (active),1.05 µM (active),< 0.033 µM (active),0.0388 µM (active),,0.971 µM (active),0.33 µM (active),1.62 µM (inactive),0.632 µM (active),0.299 µM (active)
COc1cc(CNc2nc3ccccc3nc2C(=O)O)cc(OC)c1OC,> 100 µM,> 100 µM (inactive),> 100 µM (inactive),> 100 µM (inactive),49.2 µM (inactive),> 100 µM (inactive),,42.1 µM (inactive),> 100 µM (inactive),> 100 µM (inactive),> 100 µM (inactive),> 100 µM (inactive),99.1 µM (inactive),> 100 µM (inactive),> 100 µM (inactive),> 100 µM (inactive),> 100 µM (inactive),69.8 µM (inactive),76.7 µM (inactive),> 100 µM (inactive)
COc1ccc(NC(=O)CC(=O)n2nc(C)c(/N=N/c3cccc(C)c3)c2C)cc1,> 100 µM,> 100 µM (inactive),> 100 µM (inactive),> 100 µM (inactive),> 100 µM (inactive),> 100 µM (inactive),> 100 µM (inactive),> 100 µM (inactive),> 100 µM (inactive),,> 100 µM (inactive),56.6 µM (inactive),91.6 µM (inactive),> 100 µM (inactive),> 100 µM (inactive),> 100 µM (inactive),> 100 µM (inactive),18.6 µM (inactive),40.8 µM (inactive),> 100 µM (inactive)
N#Cc1nc(CN2C(=O)c3ccccc3C2=O)oc1N,> 100 µM,> 100 µM (inactive),> 100 µM (inactive),> 100 µM (inactive),,> 100 µM (inactive),,> 100 µM (inactive),> 100 µM (inactive),> 100 µM (inactive),> 100 µM (inactive),> 100 µM (inactive),> 100 µM (inactive),> 100 µM (inactive),> 100 µM (inactive),> 100 µM (inactive),> 100 µM (inactive),> 100 µM (inactive),> 100 µM (inactive),> 100 µM (inactive)
Cc1cc(N(CCC#N)CCC#N)ccc1C(/N=N/c1ccc(C(=O)O)cc1)=N\NC(=O)c1ccccc1,20.9 µM,43.8 µM (inactive),3.94 µM (inactive),22.5 µM (inactive),42.7 µM (inactive),35 µM (inactive),50.8 µM (inactive),14.4 µM (inactive),16.3 µM (inactive),50.2 µM (inactive),66.8 µM (inactive),22.3 µM (inactive),6.08 µM (inactive),4.31 µM (inactive),,> 100 µM (inactive),18.2 µM (inactive),49.2 µM (inactive),34.3 µM (inactive),

# Source: ChEMBL document CHEMBL1201862, “PubChem BioAssay data set” (2004)
